Columns and labels:
Type in all cases: biochemical
JAK1 = biological target: T1, JAK1 (Homo sapiens, UniProt P23458); assay: JAK1 Inhibition Assay (Omnia kinase fluorescence peptide substrate assay); settings: averaged IC50 ranges; assay of Example B; 40 μM (Km app) or 1 mM ATP, 15 nM JAK1
T1 construct: purchased Invitrogen Corporation, Carlsbad, Calif; PV4775

Human Tyk2 kinase domain = biological target: T2, Human Tyk2 kinase domain (Homo sapiens, UniProt P29597); assay: Tyk2 Inhibition Assay (Omnia kinase fluorescence peptide substrate assay); settings: averaged IC50 ranges; assay of Example A; 10 μM (Km app) or 1 mM ATP, 2 nM Tyk2
T2 construct: comprising amino acids 886 to 1187 with 10 additional histidine residues; 10xHis (histidine tag) (C, cleaved yes); made in house
T2 sequence (P29597 886-1187): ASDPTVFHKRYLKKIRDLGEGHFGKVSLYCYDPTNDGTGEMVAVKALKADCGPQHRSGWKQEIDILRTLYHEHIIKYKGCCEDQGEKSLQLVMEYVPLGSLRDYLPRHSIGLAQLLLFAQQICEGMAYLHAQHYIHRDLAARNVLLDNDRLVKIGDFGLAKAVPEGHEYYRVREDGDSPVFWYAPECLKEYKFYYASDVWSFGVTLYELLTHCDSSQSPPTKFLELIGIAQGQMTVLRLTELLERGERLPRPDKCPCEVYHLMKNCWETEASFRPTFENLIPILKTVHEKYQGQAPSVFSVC
Summary of the method: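 2 nM His-tag-cleaved kinase domain (aa 886–1187) with 8 μM Omnia Y12 peptide, 10 μM (Km app) or 1 mM ATP, pH 7.4 HEPES/10 mM MgCl2, 2% DMSO. Fluorescence (ex 360/em 485 nm) every 50 s for 45 min; IC50 from 4-parameter fit of POC, top dose 10 μM.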

JAK2 = biological target: T3, JAK2 (Homo sapiens, UniProt O60674); assay: JAK2 Inhibition Assay (Omnia kinase fluorescence peptide substrate assay); settings: averaged IC50 ranges; assay of Example C; 25 μM (Km app) or 1 mM ATP, 5 nM JAK2
T3 construct: purchased Invitrogen Corporation, Carlsbad, Calif; PV4288
Summary of the method: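 5 nM JAK2 phosphorylated 10 μM Omnia Y7 peptide with ATP at 25 μM (Km app) or 1 mM, in 25 mM HEPES pH 7.4, 10 mM MgCl2, 0.01% Triton X-100, 1 mM DTT, 2% DMSO. Fluorescence (360/485 nm) was read every 50 s for 45 min. 10-point 3-fold series from 10 μM; POC versus uninhibited and background controls, 4-parameter logistic IC50.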

JAK3 = biological target: T4, JAK3 (Homo sapiens, UniProt P52333); assay: JAK3 Inhibition Assay (Omnia kinase fluorescence peptide substrate assay); settings: averaged IC50 ranges; assay of Example D; 10 μM (Km app) or 1 mM ATP, 2.5 nM JAK3
T4 construct: purchased Invitrogen Corporation, Carlsbad, Calif; PV4080
T4 sequence (P52333 1-1124): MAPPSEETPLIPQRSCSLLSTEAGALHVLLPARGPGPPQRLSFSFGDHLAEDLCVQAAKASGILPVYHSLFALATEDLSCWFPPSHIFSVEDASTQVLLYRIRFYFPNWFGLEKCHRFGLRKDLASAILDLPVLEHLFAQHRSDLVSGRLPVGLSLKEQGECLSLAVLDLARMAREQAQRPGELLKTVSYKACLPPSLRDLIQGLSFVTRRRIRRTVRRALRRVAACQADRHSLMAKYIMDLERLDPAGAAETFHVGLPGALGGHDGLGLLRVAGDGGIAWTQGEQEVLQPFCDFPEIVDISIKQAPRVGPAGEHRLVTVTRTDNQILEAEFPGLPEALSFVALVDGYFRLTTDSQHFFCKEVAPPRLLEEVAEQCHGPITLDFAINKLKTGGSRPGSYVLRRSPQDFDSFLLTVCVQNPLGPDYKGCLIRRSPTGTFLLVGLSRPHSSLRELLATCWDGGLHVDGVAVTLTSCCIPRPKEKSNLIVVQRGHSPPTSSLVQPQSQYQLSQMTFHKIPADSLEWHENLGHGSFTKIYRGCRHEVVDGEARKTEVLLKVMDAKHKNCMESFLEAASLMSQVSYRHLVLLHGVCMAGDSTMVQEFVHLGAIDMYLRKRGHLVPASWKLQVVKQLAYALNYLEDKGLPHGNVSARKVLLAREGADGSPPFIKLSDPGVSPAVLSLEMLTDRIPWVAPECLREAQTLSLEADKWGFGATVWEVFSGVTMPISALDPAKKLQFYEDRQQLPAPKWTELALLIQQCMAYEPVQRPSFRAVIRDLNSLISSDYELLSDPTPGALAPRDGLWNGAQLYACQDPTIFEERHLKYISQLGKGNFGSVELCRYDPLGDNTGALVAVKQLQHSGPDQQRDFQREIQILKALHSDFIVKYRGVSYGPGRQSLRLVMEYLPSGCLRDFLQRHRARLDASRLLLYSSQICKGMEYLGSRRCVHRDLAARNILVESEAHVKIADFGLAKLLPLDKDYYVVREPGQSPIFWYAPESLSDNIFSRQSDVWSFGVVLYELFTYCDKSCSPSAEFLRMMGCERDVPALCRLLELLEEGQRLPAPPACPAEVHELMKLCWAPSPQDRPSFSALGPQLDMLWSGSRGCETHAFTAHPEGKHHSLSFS
Summary of the method: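 Kinase at 2.5 nM with 10 µM Omnia Y7 peptide and 10 µM (Km app) or 1 mM ATP in 25 mM HEPES pH 7.4, 10 mM MgCl2, 1 mM DTT, 0.01% Triton X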

T3 sequence (O60674 whole entry): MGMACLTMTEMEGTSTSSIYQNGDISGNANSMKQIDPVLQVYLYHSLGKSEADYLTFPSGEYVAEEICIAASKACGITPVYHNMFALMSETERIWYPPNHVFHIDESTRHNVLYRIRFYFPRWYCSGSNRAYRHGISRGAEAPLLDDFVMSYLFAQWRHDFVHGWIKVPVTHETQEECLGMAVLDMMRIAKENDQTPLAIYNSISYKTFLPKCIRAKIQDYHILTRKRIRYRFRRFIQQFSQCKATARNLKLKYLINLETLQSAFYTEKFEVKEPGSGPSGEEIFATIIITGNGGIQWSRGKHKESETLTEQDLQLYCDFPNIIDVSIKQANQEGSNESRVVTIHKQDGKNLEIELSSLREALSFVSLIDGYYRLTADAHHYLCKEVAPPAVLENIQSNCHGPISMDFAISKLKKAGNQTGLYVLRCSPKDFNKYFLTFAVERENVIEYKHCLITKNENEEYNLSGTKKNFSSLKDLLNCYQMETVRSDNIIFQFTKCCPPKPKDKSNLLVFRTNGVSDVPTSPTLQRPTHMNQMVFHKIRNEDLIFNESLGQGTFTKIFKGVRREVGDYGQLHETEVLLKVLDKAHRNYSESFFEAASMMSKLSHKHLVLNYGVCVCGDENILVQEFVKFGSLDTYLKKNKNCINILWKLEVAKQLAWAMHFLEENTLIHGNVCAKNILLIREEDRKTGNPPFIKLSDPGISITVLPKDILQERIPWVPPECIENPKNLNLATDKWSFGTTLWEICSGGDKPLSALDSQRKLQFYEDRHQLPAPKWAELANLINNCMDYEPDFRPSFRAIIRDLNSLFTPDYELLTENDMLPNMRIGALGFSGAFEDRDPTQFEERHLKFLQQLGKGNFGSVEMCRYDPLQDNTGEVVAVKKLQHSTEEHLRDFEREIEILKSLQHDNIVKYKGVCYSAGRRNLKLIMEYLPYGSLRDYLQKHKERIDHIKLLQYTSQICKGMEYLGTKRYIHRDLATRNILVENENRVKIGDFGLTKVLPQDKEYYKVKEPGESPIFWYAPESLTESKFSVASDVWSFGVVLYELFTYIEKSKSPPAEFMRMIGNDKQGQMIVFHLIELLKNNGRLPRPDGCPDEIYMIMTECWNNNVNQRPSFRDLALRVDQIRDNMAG
T1 sequence (P23458 whole entry): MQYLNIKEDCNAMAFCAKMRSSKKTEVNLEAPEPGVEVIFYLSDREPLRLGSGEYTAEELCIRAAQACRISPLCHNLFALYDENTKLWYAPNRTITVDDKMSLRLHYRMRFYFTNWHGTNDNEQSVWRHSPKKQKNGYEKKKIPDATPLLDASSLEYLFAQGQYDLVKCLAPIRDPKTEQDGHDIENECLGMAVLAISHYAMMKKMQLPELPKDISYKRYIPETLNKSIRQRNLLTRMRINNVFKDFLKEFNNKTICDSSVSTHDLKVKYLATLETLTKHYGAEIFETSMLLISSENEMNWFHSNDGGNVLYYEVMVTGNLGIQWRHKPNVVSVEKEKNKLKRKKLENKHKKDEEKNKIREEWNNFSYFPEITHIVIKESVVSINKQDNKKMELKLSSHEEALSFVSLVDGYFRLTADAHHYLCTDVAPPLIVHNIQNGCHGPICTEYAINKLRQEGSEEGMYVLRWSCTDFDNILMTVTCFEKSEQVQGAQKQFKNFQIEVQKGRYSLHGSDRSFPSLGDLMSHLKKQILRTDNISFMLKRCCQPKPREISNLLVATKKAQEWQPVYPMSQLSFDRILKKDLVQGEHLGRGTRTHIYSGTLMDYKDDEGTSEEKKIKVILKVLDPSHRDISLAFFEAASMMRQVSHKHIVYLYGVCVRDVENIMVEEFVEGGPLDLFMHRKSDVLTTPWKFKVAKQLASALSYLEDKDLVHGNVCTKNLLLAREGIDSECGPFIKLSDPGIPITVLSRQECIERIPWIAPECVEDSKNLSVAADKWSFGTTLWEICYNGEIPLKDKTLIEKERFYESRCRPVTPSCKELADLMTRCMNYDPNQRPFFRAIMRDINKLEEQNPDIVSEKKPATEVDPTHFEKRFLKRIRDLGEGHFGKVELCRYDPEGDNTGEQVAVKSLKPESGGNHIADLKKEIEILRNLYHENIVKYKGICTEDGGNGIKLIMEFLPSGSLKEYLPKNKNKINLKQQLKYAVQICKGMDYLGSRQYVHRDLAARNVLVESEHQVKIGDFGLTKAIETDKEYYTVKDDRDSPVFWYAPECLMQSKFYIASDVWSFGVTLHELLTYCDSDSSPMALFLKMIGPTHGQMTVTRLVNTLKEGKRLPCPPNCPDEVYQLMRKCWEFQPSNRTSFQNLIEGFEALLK

Structure (SMILES)	IC50 (JAK1) [nM]	IC50 (Human Tyk2 kinase domain) [nM]	IC50 (JAK2) [nM]	IC50 (JAK3) [nM]
Cn1cc(-c2cc3ncc(F)n3c(-c3cnn(C(CC#N)C4CC4)c3)n2)cn1 (centres unmarked) [Example 152, 3-cyclopropyl-3-(4-(3-fluoro-7-(1-methyl-1H-pyrazol-4-yl)imidazo[1,2-c]pyrimidin-5-yl)-1H-pyrazol-1-yl)propanenitrile]	100 to 1000	< 10	10 to 100	100 to 1000
N#CCC1(n2cc(-c3nc(-c4cnn(C5COC5)c4)cc4ncc(Cl)n34)cn2)CN(CC(F)(F)F)C1 [Example 153, 2-(3-(4-(3-chloro-7-(1-(oxetan-3-yl)-1H-pyrazol-4-yl)imidazo[1,2-c]pyrimidin-5-yl)-1H-pyrazol-1-yl)-1-(2,2,2-trifluoroethyl)azetidin-3-yl)acetonitrile]	100 to 1000	< 10	10 to 100	100 to 1000
Cn1cc(-c2cc3ncc(F)n3c(-c3cnn(C4(CC#N)CN(S(=O)(=O)C(F)(F)F)C4)c3)n2)cn1 [Example 154, 2-(3-(4-(3-fluoro-7-(1-methyl-1H-pyrazol-4-yl)imidazo[1,2-c]pyrimidin-5-yl)-1H-pyrazol-1-Y1)-1-((trifluoromethyl)sulfonyl)azetidin-3-yl)acetonitrile]	10 to 100	< 10	< 10	100 to 1000
Cn1cc(-c2cc3ncc(Cl)n3c(-c3cnn(C4(CC#N)CN(S(=O)(=O)C(F)(F)F)C4)c3)n2)cn1 [Example 155, 2-(3-(4-(3-chloro-7-(1-methyl-1H-pyrazol-4-yl)imidazo[1,2-c]pyrimidin-5-yl)-1H-pyrazol-1-yl)-1-((trifluoromethyl)sulfonyl)azetidin-3-yl)acetonitrile]	10 to 100	< 10	10 to 100	100 to 1000
N#CCC1(n2cc(-c3nc(-c4cnn(C5COC5)c4)cc4nccn34)cn2)CN(CC(F)F)C1 [Example 156, 2-(1-(2,2-difluoroethyl)-3-(4-(7-(1-(oxetan-3-yl)-1H-pyrazol-4-yl)imidazo[1,2-c]pyrimidin-5-yl)-1H-pyrazol-1-yl)azetidin-3-yl)acetonitrile]	100 to 1000	< 10	10 to 100	> 1000
N#CCC1(n2cc(-c3nc(-c4cnn(C5COC5)c4)cc4nccn34)cn2)CN(CC(F)(F)C(F)(F)F)C1 [Example 157, 2-(3-(4-(7-(1-(oxetan-3-yl)-1H-pyrazol-4-yl)imidazo[1,2-c]pyrimidin-5-yl)-1H-pyrazol-1-yl)-1-(2,2,3,3,3-pentafluoropropyl)azetidin-3-yl)acetonitrile]	100 to 1000	10 to 100	10 to 100	> 1000
COc1ccc(-c2cc3nccn3c(-c3cnn(C4(CC#N)CN(S(=O)(=O)C(F)(F)F)C4)c3)n2)cc1 [Example 158, 2-(3-(4-(7-(4-methoxyphenyl)imidazo[1,2-c]pyrimidin-5-yl)-1H-pyrazol-1-yl)-1-(trifluoromethylsulfonyl)azetidin-3-yl)acetonitrile]	< 10	< 10	10 to 100	100 to 1000
COc1ccc(-c2cc3nccn3c(-c3cnn(C4(CC#N)CN(S(=O)(=O)C5CC5)C4)c3)n2)cc1 [Example 159, 2-(1-(cyclopropylsulfonyl)-3-(4-(7-(4-methoxyphenyl)imidazo[1,2-c]pyrimidin-5-yl)-1H-pyrazol-1-yl)azetidin-3-yl)acetonitrile]	10 to 100	< 10	10 to 100	> 1000
Cn1cc(-c2cc3nccn3c(-c3cnn(C4(CC#N)CC5(CCC5)C4)c3)n2)cn1 [Example 160, 2-(2-(4-(7-(1-methyl-1H-pyrazol-4-yl)imidazo[1,2-c]pyrimidin-5-yl)-1H-pyrazol-1-yl)spiro[3.3]heptan-2-yl)acetonitrile]	100 to 1000	< 10	10 to 100	100 to 1000
Cn1cc(-c2cc3nccn3c(-c3cnn(C4(CC#N)CC5(CCCC5)C4)c3)n2)cn1 [Example 161, 2-(2-(4-(7-(1-methyl-1H-pyrazol-4-yl)imidazo[1,2-c]pyrimidin-5-yl)-1H-pyrazol-1-yl)spiro[3.4]octan-2-yl)acetonitrile]	100 to 1000	< 10	10 to 100	> 1000
N#CCC1(n2cc(-c3nc(-c4cnn(C5COC5)c4)cc4nccn34)cn2)CC2(CCC2)C1 [Example 162, 2-(2-(4-(7-(1-(oxetan-3-yl)-1H-pyrazol-4-yl)imidazo[1,2-c]pyrimidin-5-yl)-1H-pyrazol-1-yl)spiro[3.3]heptan-2-yl)acetonitrile]	100 to 1000	< 10	10 to 100	100 to 1000

From patent publication US8962596B2 (Array BioPharma Inc., priority 2010, dated 2015)
